According to patent US9695155B2, “Herbicidal substituted pyrimidinyloxy benzene compounds” (E. I. DU PONT DE NEMOURS AND COMPANY, priority 2013, dated 2017):

Legend:
waterhemp = assay: Test C postemergence; type: in vivo, Amaranthus rudis; conditions: for Plant response rating (0 to 100), Waterhemp: 0 is no effect, 100 is complete control
How it was run: (§1)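 Seeds are planted in blended loam soil and sand and treated preemergence, while seedlings in a peat moss/vermiculite medium receive postemergence sprays at 2 to 18 cm height. All plants stay in the greenhouse for 13 to 15 days before visual comparison with controls on a 0–100 scale.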

Heteranthera limosa = assay: Test B flooded paddy test; type: in vivo; conditions: Flood, 250 g ai/ha; 0 to 100 scale where 0 is no effect and 100 is complete control
How it was run: (§2)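 Seedlings are raised to two leaves, flooded to a depth of 3 cm and dosed by adding the compound to the floodwater. Water level is kept constant, and plants are scored visually versus controls 13–15 days later (0 = no effect, 100 = complete control).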

kochia = assay: Test A preemergence; type: in vivo, Kochia scoparia; conditions: for Plant response rating, Kochia: 0 to 100 scale where 0 is no effect and 100 is complete control
How it was run: (§3)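 Compounds in non-phytotoxic solvent with surfactant applied as soil spray preemergence, or postemergence to plants 2-10 cm at one- to two-leaf stage, in loam/sand. After approximately 10 days in greenhouse, injury rated visually versus untreated controls, 0 (no effect) to 100 (complete control).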

corn [1] = assay: Test A postemergence; type: in vivo, Zea mays; conditions: for Plant response rating, Corn: 0 to 100 scale, 0 no effect, 100 complete control; for Corn plant response rating: 125 g ai/ha, 0 to 100 scale where 0 is no effect and 100 is complete control
How it was run: as §3

galium = assay: Test C postemergence; type: in vivo, Galium aparine; conditions: for Plant response rating (0 to 100), Galium: 0 is no effect, 100 is complete control
How it was run: as §1

pigweed = assay: Test C postemergence; type: in vivo, Amaranthus retroflexus; conditions: for Plant response rating (0 to 100), Pigweed: 0 is no effect, 100 is complete control
How it was run: as §1

corn [2] = assay: Test C postemergence; type: in vivo, Zea mays; conditions: for Plant response rating (0 to 100), Corn: 0 is no effect, 100 is complete control
How it was run: as §1

Italian ryegrass [3] = assay: Test C postemergence; type: in vivo, Lolium multiflorum; conditions: for Plant response rating (0 to 100), Ryegrass, Italian: 0 is no effect, 100 is complete control
How it was run: as §1

rice = assay: Test B flooded paddy test; type: in vivo, Oryza sativa; conditions: Flood, 250 g ai/ha; 0 to 100 scale where 0 is no effect and 100 is complete control
How it was run: as §2

barnyardgrass [4] = assay: Test A postemergence; type: in vivo, Echinochloa crus-galli; conditions: for Plant response rating, Barnyardgrass: 0 to 100 scale, 0 no effect, 100 complete control; for Barnyardgrass plant response rating: 125 g ai/ha, 0 to 100 scale where 0 is no effect and 100 is complete control
How it was run: as §3

ragweed = assay: Test A preemergence; type: in vivo, Ambrosia elatior; conditions: for Plant response rating, Ragweed: 0 to 100 scale where 0 is no effect and 100 is complete control
How it was run: as §3

lambsquarters = assay: Test C postemergence; type: in vivo, Chenopodium album; conditions: for Plant response rating (0 to 100), Lambsquarters: 0 is no effect, 100 is complete control
How it was run: as §1

Italian ryegrass [5] = assay: Test A preemergence; type: in vivo, Lolium multiflorum; conditions: for Plant response rating, Ryegrass, Italian: 0 to 100 scale where 0 is no effect and 100 is complete control
How it was run: as §3

barnyardgrass [6] = assay: Test B flooded paddy test; type: in vivo, Echinochloa crus-galli; conditions: Flood, 250 g ai/ha; 0 to 100 scale where 0 is no effect and 100 is complete control
How it was run: as §2

[7] = 125 g ai/ha, postemergence, visual rating, scale 0 to 100 (0 no effect, 100 complete control)
[8] = Postemergence, 62 g ai/ha, scale 0 to 100 (0 no effect, 100 complete control)
[9] = 1000 g ai/ha, 0 to 100 scale, 0 no effect, 100 complete control, approx. 10 days
[10] = 31 g ai/ha, visual, approximately 10 days
[11] = 31 g ai/ha, postemergence, visual rating, scale 0 to 100 (0 no effect, 100 complete control), 13 to 15 days

Structure (SMILES): FCc1cn(-c2ccccc2Oc2ncc(Cl)cn2)nn1 [Compound 123]
- Plant response rating (0 to 100), Waterhemp (waterhemp; 16 g ai/ha, postemergence): 25
- Plant response rating, Waterhemp (waterhemp; [7]): 80
- Plant response rating, Waterhemp (waterhemp; [8]): 80
- Plant response rating, Ducksalad (Heteranthera limosa): 80
- Kochia plant response rating (kochia; [9]): 100
- Plant response rating, Corn (corn [1]; 1000 g ai/ha): 70
- Plant response rating (0 to 100), Galium (galium; 16 g ai/ha, postemergence): 40
- Plant response rating, Galium (galium; [7]): 90
- Plant response rating, Galium (galium; [8]): 85
- Plant response rating (0 to 100), Pigweed (pigweed; 16 g ai/ha, postemergence): 70
- Plant response rating, Pigweed (pigweed; [7]): 85
- Plant response rating, Pigweed (pigweed; [8]): 85
- Plant response rating (0 to 100), Corn (corn [2]; 16 g ai/ha, postemergence): 0
- Plant response rating, Corn (corn [2]; [7]): 5
- Plant response rating, Corn (corn [2]; [8]): 5
- Plant response rating (0 to 100), Ryegrass, Italian (Italian ryegrass [3]; 16 g ai/ha, postemergence): 0
- Plant response rating, Ryegrass, Italian (Italian ryegrass [3]; [7]): 0
- Plant response rating, Ryegrass, Italian (Italian ryegrass [3]; [8]): 0
- Plant response rating, Rice (rice): 0
- Plant response rating, Barnyardgrass (barnyardgrass [4]; 1000 g ai/ha): 100
- Ragweed plant response rating (ragweed; [9]): 90
- Plant response rating (0 to 100), Lambsquarters (lambsquarters; 16 g ai/ha, postemergence): 60
- Plant response rating, Lambsquarters (lambsquarters; [7]): 85
- Plant response rating, Lambsquarters (lambsquarters; [8]): 85
- Ryegrass, Italian plant response rating (Italian ryegrass [5]; [9]): 70
- Plant response rating, Barnyardgrass (barnyardgrass [6]): 35

Structure (SMILES): N#Cc1cnn(-c2c(Br)cccc2Oc2ncc(Cl)cn2)c1 [Compound 140]
- Plant response rating (0 to 100), Waterhemp (waterhemp; 16 g ai/ha, postemergence): 75
- Plant response rating, Waterhemp (waterhemp; [7]): 85
- Plant response rating, Waterhemp (waterhemp; [8]): 80
- Plant response rating, Ducksalad (Heteranthera limosa): 80
- Plant response rating, Kochia (kochia; [10]): 60
- Plant response rating, Kochia (kochia; 125 g ai/ha): 100
- Plant response rating, Corn (corn [1]; 31 g ai/ha): 20
- Corn plant response rating (corn [1]): 30
- Plant response rating (0 to 100), Galium (galium; 16 g ai/ha, postemergence): 50
- Plant response rating, Galium (galium; [7]): 95
- Plant response rating, Galium (galium; [8]): 90
- Plant response rating (0 to 100), Pigweed (pigweed; 16 g ai/ha, postemergence): 85
- Plant response rating, Pigweed (pigweed; [7]): 90
- Plant response rating, Pigweed (pigweed; [8]): 90
- Plant response rating (0 to 100), Corn (corn [2]; 16 g ai/ha, postemergence): 0
- Plant response rating, Corn (corn [2]; [7]): 10
- Plant response rating, Corn (corn [2]; [8]): 10
- Plant response rating (0 to 100), Ryegrass, Italian (Italian ryegrass [3]; 16 g ai/ha, postemergence): 0
- Plant response rating, Ryegrass, Italian (Italian ryegrass [3]; [7]): 0
- Plant response rating, Ryegrass, Italian (Italian ryegrass [3]; [8]): 0
- Plant response rating, Rice (rice): 0
- Plant response rating, Barnyardgrass (barnyardgrass [4]; 31 g ai/ha): 30
- Barnyardgrass plant response rating (barnyardgrass [4]): 70
- Plant response rating, Ragweed (ragweed; [10]): 30
- Plant response rating, Ragweed (ragweed; 125 g ai/ha): 70
- Plant response rating (0 to 100), Lambsquarters (lambsquarters; 16 g ai/ha, postemergence): 35
- Plant response rating, Lambsquarters (lambsquarters; [7]): 85
- Plant response rating, Lambsquarters (lambsquarters; [8]): 80
- Plant response rating, Ryegrass, Italian (Italian ryegrass [5]; [10]): 0
- Plant response rating, Ryegrass, Italian (Italian ryegrass [5]; 125 g ai/ha): 0
- Plant response rating, Barnyardgrass (barnyardgrass [6]): 20

Structure (SMILES): FCc1cccc(Oc2ncc(F)cn2)c1-n1cc(I)cn1 [Compound 152]
- Plant response rating (0 to 100), Waterhemp (waterhemp; 8 g ai/ha, postemergence): 15
- Plant response rating (0 to 100), Waterhemp (waterhemp; 16 g ai/ha, postemergence): 45
- Waterhemp plant response rating (waterhemp; [11]): 60
- Plant response rating, Ducksalad (Heteranthera limosa): 60
- Plant response rating, Kochia (kochia; [10]): 20
- Plant response rating, Kochia (kochia; 125 g ai/ha): 90
- Plant response rating, Corn (corn [1]; 31 g ai/ha): 20
- Corn plant response rating (corn [1]): 30
- Plant response rating (0 to 100), Galium (galium; 8 g ai/ha, postemergence): 15
- Plant response rating (0 to 100), Galium (galium; 16 g ai/ha, postemergence): 35
- Galium plant response rating (galium; [11]): 55
- Plant response rating (0 to 100), Pigweed (pigweed; 8 g ai/ha, postemergence): 30
- Plant response rating (0 to 100), Pigweed (pigweed; 16 g ai/ha, postemergence): 50
- Pigweed plant response rating (pigweed; [11]): 60
- Plant response rating (0 to 100), Corn (corn [2]; 4 g ai/ha, postemergence): 0
- Plant response rating (0 to 100), Corn (corn [2]; 8 g ai/ha, postemergence): 0
- Plant response rating (0 to 100), Corn (corn [2]; 16 g ai/ha, postemergence): 5
- Corn plant response rating (corn [2]; [11]): 5
- Plant response rating (0 to 100), Ryegrass, Italian (Italian ryegrass [3]; 8 g ai/ha, postemergence): 0
- Plant response rating (0 to 100), Ryegrass, Italian (Italian ryegrass [3]; 16 g ai/ha, postemergence): 0
- Ryegrass, Italian plant response rating (Italian ryegrass [3]; [11]): 0
- Plant response rating, Rice (rice): 0
- Plant response rating, Barnyardgrass (barnyardgrass [4]; 31 g ai/ha): 0
- Barnyardgrass plant response rating (barnyardgrass [4]): 30
- Plant response rating, Ragweed (ragweed; [10]): 20
- Plant response rating, Ragweed (ragweed; 125 g ai/ha): 40
- Plant response rating (0 to 100), Lambsquarters (lambsquarters; 8 g ai/ha, postemergence): 60
- Plant response rating (0 to 100), Lambsquarters (lambsquarters; 16 g ai/ha, postemergence): 40
- Lambsquarters plant response rating (lambsquarters; [11]): 80
- Plant response rating, Ryegrass, Italian (Italian ryegrass [5]; [10]): 0
- Plant response rating, Ryegrass, Italian (Italian ryegrass [5]; 125 g ai/ha): 0
- Plant response rating, Barnyardgrass (barnyardgrass [6]): 0
